# Columns and labels:
# Human keratinocytes = assay: 3H-thymidine incorporation by cultured keratinocytes (keratinocyte proliferation); assay type: cell-based
# Protocol: Human keratinocytes, isolated from neonatal foreskin by trypsin treatment were grown in Dulbecco Modification Eagle (DME) Hams F12 (1:1) medium/10% fetal calf serum in the presence of irradiated 3T3 mouse fibroblasts for establishing dividing keratinocyte colonies. Cells were grown under the above condition until their second passage and kept frozen for future use. […] On day 7, when the cells were 80-90% confluent, they were trypsinized and plated in the serum-free medium for the various experiments.
# The incorporation of ^3 H-thymidine by cultured keratinocytes was used as an assay of keratinocyte proliferation. Thymidine is one of four deoxynucleosides which are the monomeric units of DNA, the universal library of genetic information in the animal kingdom. Prior to cell division of a somatic cell such as a keratinocyte, the complete genome of the cell undergoing cell division is replicated. This involves large scale DNA synthesis by the cell and enables both daughter cells to receive identical copies of the genetic material. When ^3 H-thymidine is included in the culture media of keratinocytes which are synthesizing DNA in preparation for cell division then the labelled nucleoside is incorporated into the newly synthesized DNA. The extent of incorporation of ^3 H-thymidine into a population of cells is proportional to the rate of DNA synthesis by this population of cells and therefore an indication of their cellular proliferation.
# Keratinocytes (that were cultured as described above) were plated in 24 well plates at a density of 40,000 cells per well in 1 ml media. After incubation for four days or until the cells were 60-70% confluent, the media was changed. Test compounds were added (in triplicate) to the wells 24 hours after the media change, and four hours later 1 μCi ^3 H-Thymidine in 50 μl media was added per well. Cells were incubated for a further 24 hours. Media was removed from the cells, 10% ice cold trichloroacetic acid (TCA) added and plates were incubated on ice for 30 minutes. Cells were washed five times with 5% TCA and allowed to dissolve in 500 μl 0.1M NaOH for at least one hour (usually overnight). The preparations were neutralized with 0.1M HCl; 50 μl of the cell preparation was used to determine total protein content. Disintegrations per minute (DPM) from ^3 H labelling of DNA was determined by liquid scintillation counting of 900 μl of the cell preparation. Thymidine incorporation results were expressed as DPM/μg protein.
# TGase I = assay: Transglutaminase (TGase I) ELISA in cultured keratinocytes, normalized to DNA content (keratinocyte differentiation); assay type: cell-based, human; details: for Mean TGase/DNA X 10^-4 ± S.D.: n = 3
# Protocol: Human keratinocytes, isolated from neonatal foreskin by trypsin treatment were grown in Dulbecco Modification Eagle (DME) Hams F12 (1:1) medium/10% fetal calf serum in the presence of irradiated 3T3 mouse fibroblasts for establishing dividing keratinocyte colonies. Cells were grown under the above condition until their second passage and kept frozen for future use. Frozen second passage keratinocytes were thawed and plated into the above medium and grown for five days before they were switched to a serum-free MCDB 153-based medium keratinocyte growth medium (KGM) from Clonetics Corporation, San Diego, Calif., containing 0.15 mM Ca, or keratinocyte serum-free media (KSFM) from GIBCO containing 0.09 mM Ca). On day 7, when the cells were 80-90% confluent, they were trypsinized and plated in the serum-free medium for the various experiments.
# During the process of terminal differentiation in the epidermis, a 15 nm thick layer of protein, known as the cornified envelope (CE) is formed on the inner surface of the cell periphery. The CE is composed of numerous distinct proteins which have been cross-linked together by the formation of N^ε -(γ-glutamyl) lysine isodipeptide bonds catalyzed by the action of at least two different transglutaminases (TGases) expressed in the epidermis. TGase I is expressed in abundance in the differentiated layers of the epidermis, especially the granular layer, but is absent in the undifferentiated basal epidermis. Thus TGase I is a useful marker of epidermal keratinocyte differentiation with high TGase I levels indicating a more differentiated state. An ELISA based TGase I assay, using a TGase I antibody, was used to assess the state of differentiation of the cultured keratinocytes in the examples that follow.
# Keratinocytes (cultured as described above) were plated in 96 well plates at a density of 3,000 cells per well in 200 μl media. After incubation for four days the media was changed to media containing test compounds (six replicates per test). The cells were cultured for a further 72 hours after which time the media was aspirated and the plates stored at -70° C. Plates were removed from the freezer, and the cells washed with PBS. 100 μl sterile water was added and the cells were freeze fractured by freezing at -70° C. then thawing. The cells were incubated for one hour at room temperature (R/T) with PBS/3% BSA (wash buffer, bovine serum albumin), then rinsed with a fresh aliquot of wash buffer. Cells were incubated with 50 μl of primary antibodies monoclonal anti-human transglutaminase (IgG) obtained from Amersham (mouse) diluted 1:300 in wash buffer for one hour, 37° C. then rinsed two times with wash buffer. Cells were then incubated with 50 μl of secondary antibody (Feb fragment, peroxidase conjugated anti-mouse IgG obtained from Amersham) diluted 1:200 in wash buffer for one hour at 37° C., then rinsed two times with wash buffer. Cells were incubated with substrate solution (4 mg o-phenylene diamine and 3.3 μl 30% H2 O2 in 10 ml 0.1M citrate buffer pH 5.0) for five minutes, R/T, in darkness (under aluminum foil). The reaction was stopped by the addition of 50 μl 4N H2 SO4. The absorbance of samples was read at 492 nm in the plate reader. Out of the six replicates, four were treated with both antibodies, two were treated only with the secondary antibody (i.e., to determine background binding of enzyme conjugated Ab). TGase levels were determined by subtracting background from the readings from each treatment and determining mean ±s.d. for the replicates exposed to both Ab.
# The level of TGase-1 detected after treatment of the cells could be influenced by cell number, i.e., the greater the number of cells the greater the level of TGase-1 detected. The level of TGase-1 was normalized to DNA content of the cells in the same well thus eliminating variation due to differences in cell number. […]
# [1] = Examples 1-4, overall conclusion
smiles,measurement,setting,value
"CC1=C(/C=C/C(C)=C/C=C/C(C)=C/CO)C(C)(C)CCC1 [ROH, retinol]",effect on keratinocyte proliferation (in words),Human keratinocytes; [1],completely ineffective at increasing keratinocyte proliferation
same,Thymidine incorporation (% control),"Human keratinocytes; Table 1A, 2.5 × 10^-7 M, 24 hours, 0.25 µM",106%
same,mean Thymidine incorp./μg protein ± s.d,"Human keratinocytes; Table 1A, 2.5 × 10^-7 M, 24 hours, n = 3",2218 ± 73 DPM/μg protein
same,Thymidine incorporation (% control),"Human keratinocytes; Table 1A, 2.5 × 10^-8 M, 24 hours, 0.025 µM",97%
same,mean Thymidine incorp./μg protein ± s.d,"Human keratinocytes; Table 1A, 2.5 × 10^-8 M, 24 hours, n = 3",2034 ± 46 DPM/μg protein
same,Thymidine incorporation (% control),"Human keratinocytes; Table 1A, 2.5 × 10^-9 M, 24 hours, 0.0025 µM",94%
same,mean Thymidine incorp./μg protein ± s.d,"Human keratinocytes; Table 1A, 2.5 × 10^-9 M, 24 hours, n = 3",1977 ± 19 DPM/μg protein
same,Thymidine incorporation (% control),"Human keratinocytes; Table 2A, 2.5 × 10^-9 M RA or ROH, with 10^-8 M LADEA and/or 10^-9 M Bifonazole where named, 24 hours",111%
same,mean Thymidine incorp. μg protein ± s.d,"Human keratinocytes; Table 2A, 2.5 × 10^-9 M RA or ROH, with 10^-8 M LADEA and/or 10^-9 M Bifonazole where named, 24 hours, n = 3",4856 ± 217 DPM/μg protein
same,Thymidine incorporation (% control),"Human keratinocytes; Table 3A, 2.5 × 10^8 M [sic] ROH, with 10^8 M LADEA and/or 10^9 M Climbazole where named, 1440 min",102%
same,mean Thymidine incorp/μg protein ± s.d,"Human keratinocytes; Table 3A, 2.5 × 10^8 M [sic] ROH, with 10^8 M LADEA and/or 10^9 M Climbazole where named, n = 3",3788 ± 57 DPM/μg protein
same,Thymidine incorporation (% control),"Human keratinocytes; Table 4, 2.5 × 10^9 M [sic] RA or ROH, with 10^8 M LAMEA and/or 10^8 M Clotrimazole where named, 24 hours",113%
same,"mean Thymidine incorp/μg protein ± s.d, normalized to control","Human keratinocytes; Table 4, 2.5 × 10^9 M [sic] RA or ROH, with 10^8 M LAMEA and/or 10^8 M Clotrimazole where named, 24 hours, n = 3",1.13 ± 0.09
same,effect on transglutaminase level / keratinocyte differentiation (in words),"TGase I; Example 1, 2.5×10^-7 M, 2.5×10^-8 M and 2.5×10^-9 M",dose dependent
same,effect on keratinocyte TG1 level / differentiation (in words),"TGase I; Example 2, 2.5×10^-8 M RA or retinol, 10^-8 M LAMEA, 10^-8 M bifonazole, 72 hour",Neither 2.5×10^-8 M retinol nor 10^-8 M LAMEA+10^-8 M bifonazole had an inhibitory effect on the keratinocyte TG1 level
same,effect on keratinocyte TG1 level / differentiation (in words),"TGase I; Example 3, 2.5×10^-7 M RA, 2.5×10^-9 M retinol with 10^-8 M LADEA and/or climbazole, 72 hour",no inhibitory effect on the keratinocyte TG1 level
same,effect on keratinocyte differentiation (in words),TGase I; [1],significantly less effective than retinoic acid at inhibiting keratinocyte differentiation
same,TGase/DNA (% Control),"TGase I; Table 1B, 2.5 × 10^-7 M, 72 hours, 0.25 µM",47%
same,Mean TGase/DNA X 10^-4 ± S.D.,"TGase I; Table 1B, 2.5 × 10^-7 M, 72 hours",1.14 ± 0.22 X 10^-4
same,TGase/DNA (% Control),"TGase I; Table 1B, 2.5 × 10^-8 M, 72 hours, 0.025 µM",77%
same,Mean TGase/DNA X 10^-4 ± S.D.,"TGase I; Table 1B, 2.5 × 10^-8 M, 72 hours",1.89 ± 0.30 X 10^-4
same,TGase/DNA (% Control),"TGase I; Table 1B, 2.5 × 10^-9 M, 72 hours, 0.0025 µM",> 100%
same,Mean TGase/DNA X 10^-4 ± S.D.,"TGase I; Table 1B, 2.5 × 10^-9 M, 72 hours",2.70 ± 0.59 X 10^-4
same,TGase/DNA (% Control),"TGase I; Table 2B and Example 2B text, 2.5×10^-8 M RA or retinol, 10^-8 M LAMEA, 10^-8 M bifonazole where named, 72 hour",84%
same,mean TGase/DNA × 10^-4 ± s.d,"TGase I; Table 2B, 2.5 × 10^8 M [sic] RA or ROH, 10^8 M LA-MEA, 10^8 M Bifonazole where named, 72 hour, n = 6",0.111 ± 0.023 × 10^-4
same,TGase/DNA (% Control),"TGase I; Table 3B and Example 3B, 2.5×10^-9 M RA or ROH, with 10^-8 M LADEA and/or 10^-8 M climbazole where named, 72 hour",129%
same,mean TGase/DNA × 10^4 ± s.d,"TGase I; Table 3B, 2.5 × 10^9 M [sic] RA or ROH, with 10^8 M LA-DEA and/or 10^8 M Climbazole where named, 72 hour, n = 6",1.96 ± 0.33 × 10^4
